In patent publication US8772275B2, “Mediators of hedgehog signaling pathways, compositions and uses related thereto” (Curis, Inc., priority 2001, dated 2014):

Assays:
Type in all cases: cell-based
[1] = tested on: Hedgehog pathway; experiment: Gli-Luc reporter assay in human embryonic palatal mesenchyme cells, OCT-SHH stimulated; details: human-based Gli-Luc assay, OCT-SHH 1 μg/ml
Description: (§1) Compounds to be tested are dissolved in DMSO to a concentration of 10 mM, and stored at −20° C. To activate the Hedgehog pathway in the assay cells, an octylated (lipid-modified) form of the N-terminal fragment of the Sonic Hedgehog protein (OCT-SHH) is used. This N-terminal SHH fragment is produced bacterially. See, for example, Taylor F R, et al., Biochemistry 2001, 40, 4359-71.
(§2) Compounds may be tested in the “Gli-Luc” assay below, using the cell line 10T1/2(s12), wherein the cells contain a Hedgehog-responsive reporter construct utilizing Luciferase as the reporter gene. In this way, Hedgehog pathway signaling activity can be measured via the Gli-Luc response.
(§3) 10t1/2(s12) cells are plated in a 96-well micro-titer plate (MTP) at 20,000 cells/well in full medium [DMEM with […]]. Then plates are placed in the incubator for incubation overnight (O/N), at 37° C. and 5% CO2. After 24 h, the medium is replaced with Luciferase-assay medium (DMEM with 0.5% FBS). Compounds are thawed and diluted in assay medium at 3:1000 (about 300-fold) resulting in a starting concentration of about 0.0003 μM to 30 μM.
(§4) Subsequently, 150 μl each sample is added to the first wells (in triplicate). The MTP samples are then diluted at 3-fold dilutions to a total of seven wells, ultimately resulting in a regiment of seven dilutions in triplicate, for each compound. Next, the protein ligand OCT-SHH is diluted in Luciferase-assay medium and added to each well at a final concentration of […] Plates are then returned to the incubator for further incubation O/N, at 37° C. and 5% CO2. After about 24 h, plates are removed from the incubator and the medium is aspirated/discarded. Wells are washed once with assay buffer [PBS+1 mM Mg^2+ and 1 mM Ca^2+]. Then 50 μl of assay buffer is added to each well. The Luciferase assay reagent is prepared as described by the vendor (LucLite kit from Packard), and 50 μl is added to each well. Plates are incubated at room temperature (RT) for about 30 minutes after which the signals are read, again at RT, on a Topcount (Packard).
Similar assays were performed using human cell lines (specifically, human embryonic palatal mesenchyme cells, modified with the Gli-Luc construct as described above) in a growth medium of MEM/Sodium Pyruvate w/10% MS, and an assay medium of MEM/Sodium Pyruvate w/0.5% FBS. OCT-SHH was added to reach a final concentration of 1 μg/ml.

[2] = tested on: hedgehog signaling pathway; experiment: Colon cancer cells co-cultured with 10T(S12) reporter cells, luciferase activity; details: 20,000 colon cancer cells mixed with 10,000 10T(S12) cells, 72 hrs incubation
Description: 20,000 colon cancer cells were mixed with 10,000 10T(S12) cells (described above), and the mixture was added to each well in a 96-well plate. A subject compound or control vehicle was added to the culture on the next day. After 72 hrs of incubation, the cells were lysed for measuring the luciferase activity. […] FIG. 35 depicts the comparative inhibition of hedgehog-induced activation in S12 cells for the antibodies 1E6 and 5E1 and compound A, and the comparative inhibition of endogenous hedgehog activity in colon cancer cells for these compositions.

[3] = tested on: Hedgehog pathway; experiment: Gli-Luc reporter assay in 10T1/2(s12) cells, OCT-SHH stimulated; details: compounds E-V: not from the human-based assay; Gli-Luc assay in 10T1/2(s12) cells
Description: as §1, §2, §3, §4

Row | SMILES | IC50 [1] | inhibition of luciferase activity compared to vehicle [2] | IC50 [3]
1 | O=C(Nc1ccc(Cl)c(-c2nc3ccccc3[nH]2)c1)c1cccnc1 [B] | < 50 nM | – | –
2 | O=C(Nc1ccc(Cl)c(-c2nc3ccccc3[nH]2)c1)c1ccc2c(c1)OCCO2 [C] | < 500 nM | – | –
3 | COc1cc(OC)cc(C(=O)Nc2ccc(Cl)c(-c3nc4ccccc4[nH]3)c2)c1 [Compound A] | < 50 nM | able to inhibit the lucferase activity | –
4 | Cc1ccccc1OCC(=O)Nc1ccc(Cl)c(-c2nc3ccccc3[nH]2)c1 [E] | – | – | < 5000 nM
5 | Cc1ccc(C(=O)Nc2ccc(Cl)c(-c3nc4ccccc4[nH]3)c2)cc1[N+](=O)[O-] [J] | – | – | < 5000 nM
6 | COc1cc(C(=O)Nc2ccc(Cl)c(-c3nc4ccccc4[nH]3)c2)cc(OC)c1OC [L] | – | – | < 5000 nM
7 | O=C(Nc1ccc(Cl)c(-c2nc3cc(C(F)(F)F)ccc3[nH]2)c1)c1ccc2c(c1)OCCO2 [W] | < 10 nM | – | –
8 | Cc1ccc2nc(-c3cc(NC(=O)c4ccc5c(c4)OCCO5)ccc3Cl)[nH]c2c1C [X] | < 50 nM | – | –
9 | COc1ccc(C(=O)Nc2ccc(Cl)c(-c3nc4cc(C)c(C)cc4[nH]3)c2)cc1Cl [Y] | < 50 nM | – | –
10 | COc1cc(OC)cc(C(=O)Nc2ccc(Cl)c(-c3nc4c(C)cccc4[nH]3)c2)c1 [Z] | < 50 nM | – | –
